From paper PMC12070228, “Investigations of Enteric-Coated Tablet Propyl Gallate-Induced Nephrotoxicity in Beagles as well as Human and Dog Renal Proximal Tubule Epithelial Cells” (ACS Pharmacology & Translational Science, 2025)
Read-outs that look alike come from different tables or passages of the source.

Assays:
[1] = PG pharmacokinetics in healthy volunteers, clinical study NCT03362593 (validated LC-MS/MS); assay type: in vivo; conditions: human, plasma, oral EC MEDI7219 tablets, PG 200, 400 or 800 mg
Experimental: (§1) The total run time was 5.5 min.
(§2) The targeted quantitation of PG and phase-I/II metabolites was conducted using peak area ratio of analytes and internal standards in MultiQuant software (SCIEX).
Healthy volunteers participating in the clinical study NCT03362593 received single or multiple ascending doses of MEDI7219 tablets. Healthy volunteers received EC MEDI7219 tablets containing 200, 400, or 800 mg PG per tablet. The clinical plasma samples were analyzed using the validated method described above. […] After oral administration of tablets containing PG, the T max of PG was reached around 3–4 h postdose.

[2] = no reference given; cited from earlier work
[3] = PG toxicokinetics in dog plasma (LC-MS/MS), studies 001-005; assay type: in vivo; conditions: beagle, po
Experimental: Samples were vortexed and centrifuged before injection.
as §1, §2
In the follow-up 4-week study (study 003), dogs received EC tablets consisting of the clinical formulation excipients minus PG, clinical formulation excipients minus NaCDC, or PG alone in a gelatin capsule once daily for 26 days. […] Samples for PG toxicokinetics were collected on days 1 and 22 of the dosing-phase at predose (Day 22 only) and 0.5, 1, 2, 4, 6, 8, 12, and 24 h postdose. […] Plasma samples for the measurement of lipopolysaccharide (LPS) were taken twice in the pretest period, predose and 2 h after dosing on Days 15 and 22, and prior to necropsy. LPS concentrations were measured using a qualified sandwich ELISA method (LSBiosciences) with a detection range of 7.82 to 500 pg/mL.
Table S2. Correlation of PG exposure with nephrotoxicity.
AUC0-24 = area under the concentration versus time curve from time 0 to 24 hours; clin = clinical; F = female; M = male; NR = no result due to insufficient data. […]
a Clinical formulation excipients included sodium chenodeoxycholate (Na CDC), propyl gallate (PG), tris(hydroxymethyl)aminomethane (Tris)(except for Study 005), mannitol, crospovidone, aerosil, sodium stearyl fumarate, eudragit, and plasarcryl. b Study 001: Initial 4-week investigational new drug (IND)-enabling good laboratory practice (GLP) study c Study 002: Investigative 4-week study with different excipient combinations d Study 003: Follow-up investigative 4-week study with non-enteric coated capsule e Study 004: 3-month GLP study f Study 005: 9-month GLP study g Day 7 AUC value is presented; AUC could not be calculated for Day 28 samples due to insufficient data. h Minimal nephropathy observed in 2 recovery (4 weeks) group females, but not in main group animals.

[4] = tested on: dog RPTECs; assay: Cell Titer Glo cell viability assay; assay type: cell-based
Experimental: (§3) Frozen RPTECs vials were removed from liquid nitrogen storage and placed in a 37 °C water bath until the contents were completely thawed. The cells were gently resuspended and dispensed into a cell culture flask at a seeding density of ∼7500 cells/cm^2. The flask was placed in a 37 °C, 5% CO2 incubator. Cell cultures were given fresh medium the following morning and then every other day until the cell culture was approximately 90% confluent. When the cell culture was 90% confluent, medium was removed and the cells were rinsed with warmed PBS. Cells were harvested and split into new flasks based on a cell density of 7500 cells/cm^2. Cells were incubated at 37 °C for 3 days, with fresh medium added each day. Cells were harvested and diluted with growth medium to a density of 200,000 cells/mL. 100 μL of cell suspension per well (20,000 cells/well) was added to a clear-bottom 96-well microplate for luminescence assays. The plated cells were incubated in the 37 °C incubator for 3 days.
(§4) Each test compound (PG, GA, 4OMPG and 4OMGA) was initially reconstituted using DMSO at a concentration of 250 mg/mL. Serial dilutions of each compound were performed to reach concentrations of 4000 μM, 2000 μM, 1000 μM, 500 μM, 250 μM, 125 μM, 62.5 μM, 31.3 μM using warmed fresh supplemented medium with 0.4% (v/v) DMSO for all concentration levels. 100 μL of media containing the compound solution was added to the cells. Final concentrations of the compounds were 2000 μM, 1000 μM, 500 μM, 250 μM, 125 μM, 62.5 μM, 31.3 μM, 15.7 μM. […]
(§5) Cell media were removed and cells were washed twice with 200 μL of PBS buffer per well. […] The plate was gently shaken and incubated in the dark for 30 min and luminescence was measured using a PerkinElmer VICTOR X3 plate reader. […] Luminescence was measured using a PerkinElmer VICTOR X3 plate reader.
(§6) For cell-based assays, data was normalized to the negative control. Cell viability and GSH level were expressed as Cell viability or GSH level=Luminescence(each well)/Luminescence(average of DMSO negative control)

[5] = tested on: human RPTECs; assay: Cell Titer Glo cell viability assay; assay type: cell-based; conditions: RPTEC, 48 h exposure, estimated
Experimental: as §3, §4, §5, §6

In the case of `CCCOC(=O)c1cc(O)c(O)c(O)c1` [PG, propyl gallate], the Tmax [1] is listed as 3 to 4 h, the “Log P” value [2] is listed as 2.13 and the AUC(0-t) ([3]; 12.5 mg/kg/day, PG 12.5, NaCDC 10, MEDI7219 0.75 mg/kg/day, clin excipients, Study 005 Day 112, read-out: Propyl Gallate Exposure (AUC0-24)) is listed as 72 ng·h/mL. It also gave an AUC(0-t) ([3]; 12.5 mg/kg/day, PG 12.5, NaCDC 10, MEDI7219 0.75 mg/kg/day, clin excipients, Study 005 Day 196, read-out: Propyl Gallate Exposure (AUC0-24)) of 88 ng·h/mL, an AUC(0-t) ([3]; 12.5 mg/kg/day, PG 12.5, NaCDC 10, MEDI7219 0.75 mg/kg/day, clin excipients, Study 005 Day 266, read-out: Propyl Gallate Exposure (AUC0-24)) of 90 ng·h/mL and an AUC(0-t) ([3]; 14 mg/kg/day, PG 14, NaCDC 7, MEDI7219 0.4 mg/kg/day, clin excipients, Study 004 Day 78, read-out: Propyl Gallate Exposure (AUC0-24)) of 101 ng·h/mL. The AUC(0-t) ([3]; 200 mg/kg/day, PG 200, NaCDC 0, MEDI7219 0 mg/kg/day, clin excipients minus NaCDC and Tris, Study 002 Day 14, read-out: Propyl Gallate Exposure (AUC0-24)) was 1890 ng·h/mL, the AUC(0-t) ([3]; 200 mg/kg/day, PG 200, NaCDC 0, MEDI7219 0 mg/kg/day, clin excipients minus NaCDC and Tris, Study 002 Day 21, read-out: Propyl Gallate Exposure (AUC0-24)) was 4840 ng·h/mL and the AUC(0-t) ([3]; 200 mg/kg/day, PG 200, NaCDC 0, MEDI7219 0 mg/kg/day, clin excipients minus NaCDC, Study 002 Day 14, read-out: Propyl Gallate Exposure (AUC0-24)) was 2580 ng·h/mL. For the same compound, the AUC(0-t) ([3]; 200 mg/kg/day, PG 200, NaCDC 0, MEDI7219 0 mg/kg/day, clin excipients minus NaCDC, Study 002 Day 21, read-out: Propyl Gallate Exposure (AUC0-24)) was 1850 ng·h/mL, the AUC(0-t) ([3]; 200 mg/kg/day, PG 200, NaCDC 0, MEDI7219 0 mg/kg/day, clin excipients minus NaCDC, Study 003 Day 22, read-out: Propyl Gallate Exposure (AUC0-24)) was 6290 ng·h/mL and the AUC(0-t) ([3]; 200 mg/kg/day, PG 200, NaCDC 0, MEDI7219 0 mg/kg/day, gelatin capsule (PG only), Study 003 Day 22, read-out: Propyl Gallate Exposure (AUC0-24)) was 1980 ng·h/mL. For the same compound, the AUC(0-t) ([3]; 200 mg/kg/day, PG 200, NaCDC 100, MEDI7219 0 mg/kg/day, clin excipients minus Tris, Study 002 Day 14, read-out: Propyl Gallate Exposure (AUC0-24)) was 2760 ng·h/mL, the AUC(0-t) ([3]; 200 mg/kg/day, PG 200, NaCDC 100, MEDI7219 0 mg/kg/day, clin excipients minus Tris, Study 002 Day 21, read-out: Propyl Gallate Exposure (AUC0-24)) was 1800 ng·h/mL and the AUC(0-t) ([3]; 200 mg/kg/day, PG 200, NaCDC 100, MEDI7219 0 mg/kg/day, clin excipients, Study 002 Day 14, read-out: Propyl Gallate Exposure (AUC0-24)) was 3250 ng·h/mL. For the same compound, the AUC(0-t) ([3]; 200 mg/kg/day, PG 200, NaCDC 100, MEDI7219 2 mg/kg/day, clin excipients, Study 001 Day 28, read-out: Propyl Gallate Exposure (AUC0-24)) was 1210 ng·h/mL, the AUC(0-t) ([3]; PG 25, NaCDC 20, MEDI7219 0.25 mg/kg/day, clin excipients, Study 005 Day 112, read-out: Propyl Gallate Exposure (AUC0-24)) was 135 ng·h/mL and the AUC(0-t) ([3]; PG 25, NaCDC 20, MEDI7219 0.25 mg/kg/day, clin excipients, Study 005 Day 196, read-out: Propyl Gallate Exposure (AUC0-24)) was 232 ng·h/mL. The AUC(0-t) ([3]; PG 36, NaCDC 18, MEDI7219 1.1 mg/kg/day, clin excipients, Study 004 Day 78, read-out: Propyl Gallate Exposure (AUC0-24)) was 282 ng·h/mL, the AUC(0-t) ([3]; PG 44, NaCDC 22, MEDI7219 0 mg/kg/day, clin excipients, Study 005 Day 196, read-out: Propyl Gallate Exposure (AUC0-24)) was 864 ng·h/mL and the AUC(0-t) ([3]; PG 44, NaCDC 35, MEDI7219 2.6 mg/kg/day, clin excipients, Study 005 Day 196, read-out: Propyl Gallate Exposure (AUC0-24)) was 1870 ng·h/mL. For the same compound, the AUC(0-t) ([3]; PG 60, NaCDC 48, MEDI7219 0 mg/kg/day, clin excipients, Study 005 Day 112, read-out: Propyl Gallate Exposure (AUC0-24)) was 3610 ng·h/mL, the AUC(0-t) ([3]; PG 60, NaCDC 48, MEDI7219 3.6 mg/kg/day, clin excipients, Study 005 Day 112, read-out: Propyl Gallate Exposure (AUC0-24)) was 829 ng·h/mL and the AUC(0-t) ([3]; PG 76, NaCDC 38, MEDI7219 0.75 mg/kg/day, clin excipients, Study 001 Day 28, read-out: Propyl Gallate Exposure (AUC0-24)) was 618 ng·h/mL. It also gave an AUC(0-t) ([3]; PG 100, NaCDC 50, MEDI7219 0 mg/kg/day, clin excipients, Study 004 Day 78, read-out: Propyl Gallate Exposure (AUC0-24)) of 1830 ng·h/mL, an AUC(0-t) ([3]; PG 100, NaCDC 50, MEDI7219 3 mg/kg/day, clin excipients, Study 004 Day 78, read-out: Propyl Gallate Exposure (AUC0-24)) of 767 ng·h/mL and an AUC(0-t) ([3]; PG 200, NaCDC 100, MEDI7219 0 mg/kg/day, clin excipients, Study 001, Day 28 column but Day 7 AUC value is presented (footnote g), read-out: Propyl Gallate Exposure (AUC0-24)) of 2560 ng·h/mL. It also gave an AUC(0-t) ([3]; female, 25 mg/kg/day, female (F), PG 25, NaCDC 20, MEDI7219 0.25 mg/kg/day, clin excipients, Study 005 Day 266, read-out: Propyl Gallate Exposure (AUC0-24)) of 986 ng·h/mL, an AUC(0-t) ([3]; male, 25 mg/kg/day, male (M), PG 25, NaCDC 20, MEDI7219 0.25 mg/kg/day, clin excipients, Study 005 Day 266, read-out: Propyl Gallate Exposure (AUC0-24)) of 158 ng·h/mL and an EC50 ([4]; Canis lupus familiaris, RPTEC, dog RPTECs, 48 h exposure, estimated) of about 46.5 µM. The “Relative difference in sensitivity between human and dog RPTECs” value ([4]; human EC50 vs dog EC50, cell viability) was about 33 fold and the EC50 [5] was about 1530 µM.
